Data from PMC7710018, “Restoration of motor learning in a mouse model of Rett syndrome following long-term treatment with a novel small-molecule activator of TrkB” (Disease Models & Mechanisms, 2020).
Values after ≈ are worked out from the molar mass of the structure shown. “Also recorded” adds a separate entry of the source.

Tests used:
[1] = test system: E16 mouse hippocampal neurons; experiment: Hippocampal neuron survival (ViaLight assay and Tuj1-positive cell counts); assay type: cell-based; settings: for neurotrophic activity in the presence of function-blocking anti-TrkB^ECD antibody: compounds 1000 nM, BDNF 20 ng/ml, vs control antibody
Description: To further confirm that PTX-BD4-3 promotes biologically relevant activity through TrkB, we examined the effect of PTX-BD4-3 on survival of cultured hippocampal neurons, using two different methods (Fig. 3A-C). […] It would be expected that although there is a correlation between survival status and mitochondrial metabolic status, one could have some degree of variability in metabolic function for a given level of cell survival. […] Because the plateau effect of PTX-BD4-3 on survival was observed between 500 nM and 1000 nM, we chose 1000 nM as a standard concentration for subsequent mechanistic studies.
Fig. 3. […] (A) Fluorescence photomicrographs (original magnification, ×40) of Tuj1-immunostained E16 mouse hippocampal neuronal cultures treated with culture medium (CM) alone, BDNF, LM22A-4 or PTX-BD4-3 for 48 h. Scale bar: 10 μm. (B) Neuron survival dose-response curves for LM22A-4 and PTX-BD4-3 were generated using the ViaLight assay; data were normalized to survival achieved with 20 ng/ml (∼0.7 nM) BDNF and compared with wells receiving culture medium medium (CM) alone. n=10-32 wells per group derived from four to five independent experiments. (C) Survival analysis of hippocampal neurons treated with either 20 ng/ml BDNF, 500 nM or 1000 nM LM22A-4 or 500 nM or 1000 nM PTX-BD4-3 for 48 h. Tuj1-positive cells counts were normalized to the survival achieved with BDNF and compared with wells treated with […]. n=32-40 wells per group derived from six independent experiments. Statistical significance in B and C was determined by one-way ANOVA with Dunnett's post hoc multiple comparison tests. *P≤0.05, ^§P≤0.001 compared to control (CM). (D) Survival of hippocampal neurons treated with CM, 20ng/ml BDNF (B), 1000 nM LM22A-4 or 1000 nM PTX-BD4-3 with or without anti-TrkB antibody (Bab) or non-immune serum (non). n=37-42 wells per group derived from five independent experiments. *P≤0.05, **P≤0.01, ***P≤0.001 (non vs Bab), Mann-Whitney test; *P≤0.05, ^ψP≤0.01, ^§P≤0.001 (compared to CM), one-way ANOVA with Dunnett's post hoc multiple comparison test.
Hippocampal neuron cultures were prepared from E16 CF1 mouse fetuses as described previously ([Yang et al., 2006]). Under the low-density conditions used here, neuronal survival is dependent, in part, on addition of exogenous neurotrophins ([Yang et al., 2008]; [Walter et al., 2011]). LM22A-4 and PTX-BD4-3 were dissolved in water at a stock concentration of 10 mM prior to dilution (1:10,000) in culture medium. Cell survival following a 48-h exposure to BDNF, LM22A-4 or PTX-BD4-3 was quantified by either counting β-tubulin III-positive cell bodies ([Massa et al., 2006]; [Walter et al., 2011]) or by the ViaLight Assay described above.

[2] = test system: 8 different CYP enzymes; experiment: CYP inhibition (Cerep); assay type: in vitro ADME; settings: 10µM
Experimental: (§1) To evaluate the relative binding specificity of LM22A-4 ([Massa et al., 2010]) and PTX-BD4-3, binding to a broad range of 55 pharmacologically relevant receptors, including numerous neurotransmitter and G-protein coupled receptors was assessed using standard radioligand competition binding assays (ExpressSProfile) performed by Cerep, Inc. (Seattle, WA, USA). In addition, ADME-Tox analysis was performed by Cerep, Inc. All experimental conditions are described on the Cerep website (www.cerep.fr).
(§2) Aqueous Human CYP inhibition (10µM) AMES hERG solubility hepatocyte DNA testing
(§3) (µM) metabolic mutagenesis
(§4) PTX‐BD4‐3 200 >60 negative negative negative
Table S2. Solubility, metabolism and toxicity screens for LM22A-4 […]
and PTX-BD4-3. […]
Both compounds were negative in 3 different assays of in vitro toxicity; inhibition of 8 different CYP enzymes at 10 µM, DNA mutagenesis in 4 different strains of Salmonella typhimurium at 5, 10, 50 and 100 µM and cardiac toxicity, measured by […] of hERG channels at 0.1, 1 and 10 µM, where >50% inhibition of the tail current indicates significant cardiac toxicity.
(also on this page, place not known: Disease Models & Mechanisms: doi:10.1242/dmm.044685: Supplementary information Disease Models & Mechanisms • Supplementary information)

[3] = test system: 4 different strains of Salmonella typhimurium; experiment: AMES DNA mutagenesis (Cerep); assay type: cell-based; settings: 5, 10, 50 and 100 µM; 4 strains
Experimental: as §1, §2, §3, §4
(§5) Table S2. Solubility, metabolism and toxicity screens for LM22A-4 and PTX-BD4-3. Standardized assays of solubility, metabolic stability and in vitro toxicity were performed to further evaluate the potential of PTX-BD4-3 as a lead candidate molecule for the treatment of Rett syndrome, and to compare its profile to that of the parent compound LM22A-4. Aqueous solubility of both compounds, which is used as a surrogate measure of absorption, was at or near the assay maximum of 200 µM. The metabolic stability of both compounds at 10 µM was evaluated at 5 different time points in […] and found to be >60 min, indicating favorable stability. […]

[4] = Aqueous solubility (Cerep); assay type: physicochemical; settings: assay maximum 200 µM
Experimental: as §1, §2, §3, §4, §5

[5] = molecular target: T1, hERG channels (Homo sapiens, UniProt Q12809); experiment: hERG testing (Cerep); assay type: cell-based; settings: 0.1, 1 and 10 µM; >50% inhibition of the tail current = significant
T1 construct: Cerep, Inc. (contract screen)
Experimental: as §1, §2, §3, §4, §5

[6] = test system: 3T3 parent line, which does not express Trk receptors; experiment: NIH-3T3 cell survival; assay type: cell-based, mouse; settings: serum-free medium

T1 sequence (Q12809 whole entry): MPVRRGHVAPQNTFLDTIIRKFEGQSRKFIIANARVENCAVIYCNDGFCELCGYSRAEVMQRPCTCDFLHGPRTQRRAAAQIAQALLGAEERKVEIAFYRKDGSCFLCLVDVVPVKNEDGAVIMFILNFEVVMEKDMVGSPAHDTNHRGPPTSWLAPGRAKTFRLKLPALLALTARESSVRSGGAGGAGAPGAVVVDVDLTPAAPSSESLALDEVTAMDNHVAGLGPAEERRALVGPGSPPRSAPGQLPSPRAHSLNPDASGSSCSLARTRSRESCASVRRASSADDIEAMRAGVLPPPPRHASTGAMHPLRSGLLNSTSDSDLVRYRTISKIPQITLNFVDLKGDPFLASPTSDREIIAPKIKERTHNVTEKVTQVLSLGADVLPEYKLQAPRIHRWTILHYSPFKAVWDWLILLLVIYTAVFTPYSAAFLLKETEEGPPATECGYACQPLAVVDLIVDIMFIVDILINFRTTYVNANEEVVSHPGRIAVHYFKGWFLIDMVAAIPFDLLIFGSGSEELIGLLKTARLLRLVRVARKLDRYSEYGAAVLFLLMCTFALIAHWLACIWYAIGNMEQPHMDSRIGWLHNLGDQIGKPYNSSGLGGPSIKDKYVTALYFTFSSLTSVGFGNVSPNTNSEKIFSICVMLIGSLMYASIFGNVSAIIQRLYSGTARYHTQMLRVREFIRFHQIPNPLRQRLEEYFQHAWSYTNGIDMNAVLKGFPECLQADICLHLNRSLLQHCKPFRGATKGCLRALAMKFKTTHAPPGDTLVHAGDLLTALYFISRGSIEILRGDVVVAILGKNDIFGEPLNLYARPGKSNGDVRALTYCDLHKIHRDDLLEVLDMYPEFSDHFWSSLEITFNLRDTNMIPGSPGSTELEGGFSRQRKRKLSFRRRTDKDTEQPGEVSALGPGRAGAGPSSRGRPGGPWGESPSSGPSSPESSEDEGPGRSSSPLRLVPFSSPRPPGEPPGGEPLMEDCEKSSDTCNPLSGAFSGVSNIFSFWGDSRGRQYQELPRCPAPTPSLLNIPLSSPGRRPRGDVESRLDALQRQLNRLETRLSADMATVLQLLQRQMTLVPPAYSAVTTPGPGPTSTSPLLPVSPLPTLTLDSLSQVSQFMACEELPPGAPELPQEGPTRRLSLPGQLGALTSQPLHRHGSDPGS

Structure (SMILES)	neurotrophic activity in the presence of function-blocking anti-TrkB^ECD antibody [1]	CYP inhibition [2]	AMES DNA mutagenesis [3]	solubility [4] [µM]	hERG testing (cardiac toxicity) [5]	maximum levels of neurotrophic activity ([1]; 48 h, ViaLight and Tuj1 counts, normalized to 20 ng/ml BDNF)	EC50 ([1]; Mus musculus, Hippocampal neuron, 48 h, ViaLight and Tuj1 counts, read-out: half-maximal effective concentration (EC50), neurotrophic activity) [µM]	survival of the 3T3 parent line [6]
O=C(NCCO)c1cc(C(=O)NCCO)cc(C(=O)NCCO)c1 [LM22A-4, N,N′,N′′-tris(2-hydroxyethyl)-1,3,5-benzenetricarboxamide, reference compound]	reduction	negative	negative	180 (≈ 61.2 µg/mL)	negative			
COCCN(C)C(=O)c1cc(C(=O)N(C)CCOC)cc(C(=O)N(C)CCOC)c1 [PTX-BD4-3, benzene-1,3,5-tricarboxylic acid tris-[(2-methoxy-ethyl)-methyl-amide]]	reduction	negative	negative; also recorded: no activity	200 (≈ 84.7 µg/mL)	negative; also recorded: no activity	80-100 % of that of BDNF	0.3 to 0.5	did not support survival
